The structures appear in SMILES notation. Entries after “also recorded” stand apart in the source; their conditions may differ. Where a SMILES comes first, the peptide text is derived from it. The star is where a group is joined. Boc = CC(C)(C)OC(=O)*; CH2Cl = ClC*

One experiment deals with Chym (Bos taurus, UniProt P00766). In words: Chym KI (Table 1B(ii)). Type of experiment: biochemical. An excerpt:
(§1) We tested the ability of an additional group of Peptide Keto-Compounds to inhibit several proteases in order to evaluate their specificity for Calpain.

Experiment [1] concerns the target T1, Papain (Carica papaya, UniProt P00784).
T1 sequence (P00784 134-345): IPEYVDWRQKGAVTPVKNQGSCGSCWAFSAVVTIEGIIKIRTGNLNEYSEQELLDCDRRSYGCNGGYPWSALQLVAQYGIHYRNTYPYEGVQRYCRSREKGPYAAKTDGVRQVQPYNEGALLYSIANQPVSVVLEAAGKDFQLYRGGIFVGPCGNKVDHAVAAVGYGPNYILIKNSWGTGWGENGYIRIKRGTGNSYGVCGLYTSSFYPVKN
In words: Papain KI (Table 1B(ii)). Type of experiment: biochemical.
Description: as §1

In another experiment the test system is hippocampal slices. In words: Hippocampal slice survival after 10 min anoxia (Example 7A). Type of experiment: cell-based, rat. The method, then: Hippocampal slices (400 um) were prepared from Sprague Dawley rats (6 to 7 weeks) and maintained in an interface chamber at 35° C. using conventional techniques, i.e., the lower surface of the slice received a constant perfusion (0.5 ml/min) of ACSF, while the upper surface was exposed to a moist atmosphere of O2 :CO2 (95%:5%) exchanged at a rate of 2 L/min. The ACSF medium contains (in mM): NaCl (124), KCl (3), KHPO4 (2.5), CaCl (3.4), NaHCO3 (26) and D-Glucose (10). Field excitatory post-synaptic responses were recorded from stratum radiatum of CAlb in response to stimulation of Schaffer-commissural fibers in CAla or CAlc. The depth of the recording electrode was optimized and evoked responses were collected at a rate of one evoked response every 30 seconds.
For the initial screening procedure, 14 to 16 slices are harvested from the hippocampus of a single rat and placed in a common ACSF bath. Each slice is tested in sequence to determine the magnitude of its pre-anoxic evoked response. Five stimulation pulses (each 0.1 ms (millisecond) in duration) were presented over a 15 second interval. The largest evoked response was noted and recorded for each slice.
After the one hour drug incubation period, the oxygen-enriched atmosphere of the chamber was made anoxic by substituting nitrogen for oxygen (N2 =95%; CO^2 =5%). The slices were retained in this anoxic environment for 10 minutes, following which the oxygen-enriched atmosphere (O^2 =95%; CO2 =5%) was reestablished.
The slices were given the opportunity to recover for 30 minutes following reoxygenation whereupon each was stimulated and the maximum evoked potential determined, as described above during the pre-anoxia period. Those slices which, after anoxia, produced a maximum evoked potential of greater than 50% of that observed prior to anoxia were defined as surviving slices.

In experiment [2] the target is T1, Papain. In words: Papain inhibition, Ki by Dixon plot (Table PKC1). In kind it is biochemical. Conditions: 0.05M Tris-HCl pH 7.5, 2 mM EDTA, 5 mM cysteine, 1% DMSO, 25° C., substrate Nα-Benzoyl-Arg-AMC; read-out: Ki P (Papain). In a few lines: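 Papain activity was read by fluorimetric AMC release (ex 380/em 460 nm) from Nα-Benzoyl-Arg-AMC in 0.05M Tris-HCl pH 7.5, 2 mM EDTA, 5 mM fresh cysteine, 1% DMSO, 25° C; "e"-marked values used Nα-Benzoyl-Arg-NA in 50 mM Tris-HCl pH 7.5, 20 mM EDTA, 5 mM cysteine, 9% DMSO. Enzyme started reactions; Ki was taken from Dixon plots over varied substrate and inhibitor concentrations.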

What is called Ki is a measure of affinity in units of concentration, obtained from inhibition or displacement. For `CCCC(NC(=O)[C@H](CC(C)C)NC(=O)OCc1ccccc1)C(=O)C(=O)OCC` (mixture of isomers) [Z-Leu-Nva-COOEt, Z-Leu-DL-Nva-COOEt], the figures for the Ki on Chym and on Papain [1] were 160 µM and 150 µM, respectively.

With `CCCCC(NC(=O)C(CC(C)C)NC(=O)OCc1ccccc1)C(=O)C(=O)OCC` (stereo not drawn) [Z-Leu-Nle-COOEt, Z-Leu-NLeu-CO2 Et], the Ki on Papain [1] amounted to 190 µM.

Turning to `N=C(N)SCCCOc1oc(=O)c2cc(N)ccc2c1Cl` [NH2 -CiTPrOIC (ACITIC), 7-amino-4-chloro-3-(3-isothiureidopropoxy)isocoumarin], the “Survival of slices after ten minutes anoxia” value (shortened to “Survival of slices”) with hippocampal slices (Dose 20 μM, incubation 1 hour) is given as 50%.

In the case of `CCOC(=O)C(=O)C(CC)NC(=O)[C@H](C)NC(=O)[C@H](C)NC(=O)OCc1ccccc1` (mixture of isomers) [Z-Ala-Ala-DL-Abu-COOEt, Z-Ala-Ala-DL-Abu-CO2 Et], on Papain [2], the Ki was determined as 0.9 µM.

On to `CC(=O)N[C@@H](CC(C)C)C(=O)N[C@@H](CC(C)C)C(=O)N[C@H](C=O)CCCNC(=N)N` [Leupeptin, Ac-Leu-Leu-Arg-H, reference compound], for which the “Survival of slices” value with hippocampal slices (Dose 1000 μM, incubation 3 hours) was 50%.

`CCOC(=O)C(=O)[C@H](CC)NC(=O)[C@H](CC(C)C)NC(=O)OCc1ccccc1` (racemic) [Z-Leu-Abu-COOEt, Z-Leu-DL-Abu-COOEt]: the Ki at Chym is more than 100 µM; on Papain [1] it was 220 µM. Moreover, the “protection of slices from anoxia (FIG. 3)” value in the experiment with hippocampal slices (10 minutes anoxic atmosphere, listed as CX218) was “protected from the effects of anoxia; also recorded: significantly more effective”. For the same compound, the “Survival of slices” value in the experiment with hippocampal slices (Dose 100 μM, incubation 1 hour) was 70%.

For `CC(C)CC(NC(=O)CNC(=O)OC(C)(C)C)C(=O)NC(Cc1ccccc1)C(=O)CCl` (stereo not drawn) [Boc-Gly-Leu-Phe-CH2 Cl] (Boc-Gly-Leu-Phe-CH2Cl; configuration not given here), in the experiment with hippocampal slices (Dose 50 μM, incubation 1 hour), the “Survival of slices” value came out at 50%.

Take `CCOC(=O)C(=O)C(Cc1ccccc1)NC(=O)C(CC(C)C)NC(=O)OCc1ccccc1` (stereo not drawn) [Z-Leu-Phe-COOEt]: the Ki came to 0.025 µM at Chym and 75 µM on Papain [1].

On to `CCC(NC(=O)[C@@H]1CCCN1C(=O)[C@H](C)NC(=O)[C@H](C)NC(=O)CCC(=O)OC)C(=O)C(=O)OC` (mixture of isomers) [MeO-Suc-Ala-Ala-Pro-Abu-COOMe, MeO-Suc-Ala-Ala-Pro-DL-Abu-CO2 Me], for which, on Papain [2], the Ki is 0.7 µM.

Source of the values: US5444042A, “Method of treatment of neurodegeneration with calpain inhibitors” (Cortex Pharmaceuticals, priority 1994, dated 1995).
